In patent EP4745130A1, “CRYSTAL FORMS OF TUBULIN-SRC DUAL-TARGETING INHIBITOR, PREPARATION METHOD THEREFOR AND USE THEREOF” (Hubei Bio-Pharmaceutical Industrial Technological Institute …, priority 2023, dated 2025):
Counter-ions that a name gives are not always drawn.

Columns and labels:
[1] = Variable humidity XRPD (VH-XRPD); type: physicochemical
Excerpt: (§1) The XRPD pattern was collected on an X-ray powder diffraction analyzer produced by PANalytacal, and the scanning parameters are shown in Table 16. Table 16 XRPD test parameters
Under low-humidity conditions (e.g., 30% RH), the sample reverts to the anhydrous crystal form A of the fumarate salt.

[2] = physchem
Protocol: (§2) Rotating mixing was carried out at 37°C at a solid feed concentration of 10 mg/mL (calculated as the compound of Formula I). […] After sampling at each time point, the samples were centrifuged (10000 rpm) and filtered (0.45 µm PTFE filter head), and the HPLC concentration and pH value of the filtrate were measured.
(§3) 100 mg of NaCl and 50 mg of Triton X-100 were weighed into a 50 mL volumetric flask, and purified water was added to complete dissolution. 816 µL of 1 M hydrochloric acid was added thereto, and the pH was adjusted to 1.8 with 1 M hydrochloric acid or 1 M NaOH solution. Purified water was added to make up to volume.
(§4) 340 mg of anhydrous NaH2PO4 and 620 mg of NaCl were weighed into a 100 mL volumetric flask. Purified water was added to complete dissolution, followed by addition of 55.44 µL of 50% NaOH solution, and the pH was adjusted to 6.5 using 1M HCl or 1M NaOH solution. Purified water was added to make up to volume. 110 mg of SIF powder was then weighed into a 50 mL volumetric flask, added with the above solution to complete dissolution and make up to volume.
(§5) 0.82 mL of glacial acetic acid and 1.18 g of NaCl were added to a 100 mL volumetric flask. Purified water was added to complete dissolution, followed by addition of 528 µL of 50% NaOH solution, and the pH was adjusted to 5.0 using 1M HCl or 1M NaOH solution. Purified water was added to make up to volume. 560 mg of SIF powder was then weighed into a 50 mL volumetric flask, added with the above solution to complete dissolution and make up to volume.

[3] = Hygroscopicity test by dynamic vapor sorption (DVS); type: physicochemical; conditions: for hygroscopicity: DVS, 25°C, 0%RH to 95%RH
Protocol: The dynamic vapor sorption (DVS) curve was collected on DVS IntrInsic from SMS (surface measurement systems). The relative humidity at 25°C was corrected using the deliquescence points of LiCl, Mg(NO3)2, and KCl. Table 18 DVS test parameters
The percentage change in sample mass was collected under constant temperature at 25°C as humidity varied from 0%RH to 95%RH.

[4] = Solid-state stability (XRPD and HPLC after open storage); type: physicochemical; conditions: for Crystal form: XRPD
Protocol: The purity test, dynamic solubility test, and stability test in the assay were measured using an Agilent 1260 high-performance liquid chromatograph, and the salt formation molar ratio of ions was tested by ion chromatography, and the analytical conditions are shown in Table 19 and Table 20. Table 19 High-performance liquid chromatography test conditions

[5] = Dynamic solubility experiment at 37°C (water, SGF, FaSSIF, FeSSIF); conditions: for S: solubility: solid feed 10 mg/mL; for pH: pH value of the filtrate
Protocol: as §2, §3, §4, §5

[6] = Heating / variable temperature XRPD (VT-XRPD), crystal form conversion; type: physicochemical
Protocol: as §1
The free form crystal form B sample was obtained by dissolving the compound of Formula I in MeOH, removing the solvent by rotary evaporation under reduced pressure, and then transferring the resulting gel-like sample for vacuum drying at 50°C. The XRPD and TGA/DSC characterization results are shown in FIGS. 4-6, and the XRPD diffraction peak data of the free form crystal form B are shown in Table 23. […] The TGA weight loss of the free form crystal form B is low, and the free form crystal form B is an anhydrous crystal form.
Combined with the TGA/DSC and ^1H NMR results of the crystal form A of the phosphate salt, the crystal form A of the phosphate salt was a hydrate, which dehydrated under heating conditions and converted to anhydrous crystal form B of the phosphate salt.

Compound	Purity (area%) ([4]; 25°C/60%RH/open, 1 week)	Relative to initial (%) ([4]; 25°C/60%RH/open, 1 week)	Crystal form ([4]; 25°C/60%RH/open, 1 week)	Purity (area%) ([4]; 40°C/75%RH/open, 1 week)	Relative to initial (%) ([4]; 40°C/75%RH/open, 1 week)	Crystal form ([4]; 40°C/75%RH/open, 1 week)	Purity (area%) ([4]; Initial)	S: solubility ([5]; FaSSIF, 1 hour, 60 min)	S: solubility ([5]; FaSSIF, 4 hours, 240 min)	S: solubility ([5]; FaSSIF, 24 hours, 1440 min)	S: solubility ([5]; H2O, 1 hour, 60 min)	S: solubility ([5]; H2O, 4 hours, 240 min)	S: solubility ([5]; H2O, 24 hours, 1440 min)	pH ([5]; FaSSIF, 1 hour)	pH ([5]; FaSSIF, 4 hours)	pH ([5]; FaSSIF, 24 hours)	pH ([5]; FeSSIF, 1 hour)	pH ([5]; FeSSIF, 4 hours)	pH ([5]; FeSSIF, 24 hours)	pH ([5]; H2O, 1 hour)	other results
Cc1cc(OCCN2C[C@H]3COC[C@H]3C2)ccc1-c1ccc(CC(=O)NCc2ccccc2)nc1 [Crystal form A of fumarate salt]	97.02 area%	100.0%	Crystal form A of fumarate salt	97.09 area%	100.1%	Crystal form A of fumarate salt	96.99 area%	8720 µg/mL	8940 µg/mL	8240 µg/mL	9440 µg/mL	9720 µg/mL	9380 µg/mL	4.3	4.4	4.4	4.6	4.6	4.6	4.0	XRPD change at high humidity ([1]; placed at 85% RH): shift in diffraction peaks; crystal form after return to low humidity ([1]; returned to 30% RH): converted back to the crystal form A of the fumarate salt; solubility at 1 h ([2]; fessif): 3630 µg/mL; solubility at 4 h ([2]; fessif): 3600 µg/mL; solubility at 24 h ([2]; fessif): 3610 µg/mL; solubility at 1 h ([2]; sgf): 9650 µg/mL; solubility at 4 h ([2]; sgf): 9820 µg/mL; solubility at 24 h ([2]; sgf): 9170 µg/mL; hygroscopicity ([3]; listed as crystal form A of the fumarate salt): significantly hygroscopic above 70% RH; weight change in DVS test ([3]; high-humidity conditions (>70% RH)): significant weight gain; pH ([5]; H2O, 4 hours): 4.0; pH ([5]; H2O, 24 hours): 4.0; pH ([5]; SGF, 1 hour): 3.4; pH ([5]; SGF, 4 hours): 3.4; pH ([5]; SGF, 24 hours): 3.4
Cc1cc(OCCN2C[C@H]3COC[C@H]3C2)ccc1-c1ccc(CC(=O)NCc2ccccc2)nc1 [Crystal form A of phosphate salt]	97.84 area%	100.2%	Crystal form A of phosphate salt	97.55 area%	99.9%	Crystal form A of phosphate salt	97.62 area%	6630 µg/mL	6320 µg/mL	6140 µg/mL	9830 µg/mL	9650 µg/mL	9120 µg/mL	5.9	5.9	5.9	4.9	4.9	4.9	5.3	hygroscopicity ([3]; listed as crystal form A of the phosphate salt): rapidly dehydrates below 10% RH; crystal form after heating ([6]; heating to 150°C under nitrogen, cooling to 30°C, exposing to air): conversion to free form crystal form B; crystal form after purging ([6]; purging under N2 for 20 min): remained unchanged; S: solubility ([5]; FeSSIF, 1 hour, 60 min): 5130 µg/mL; S: solubility ([5]; FeSSIF, 4 hours, 240 min): 4120 µg/mL; S: solubility ([5]; FeSSIF, 24 hours, 1440 min): 3730 µg/mL; S: solubility ([5]; SGF, 1 hour, 60 min): 9140 µg/mL; S: solubility ([5]; SGF, 4 hours, 240 min): 9670 µg/mL; S: solubility ([5]; SGF, 24 hours, 1440 min): 9070 µg/mL; pH ([5]; H2O, 4 hours): 5.4; pH ([5]; H2O, 24 hours): 5.3; pH ([5]; SGF, 1 hour): 3.4; pH ([5]; SGF, 4 hours): 3.4; pH ([5]; SGF, 24 hours): 3.4
